Drawing on patent publication US7880002B2, “Substituted piperazinyl-pyrrolidine compounds useful as chemokine receptor antagonists” (Millennium Pharmaceuticals, Inc., priority 2004, dated 2011), this text covers IC50 for 21 molecules.

SMILES strings stand for the structures. Some results are limits rather than exact numbers.

This assay addresses T1, CCR1 (Homo sapiens, UniProt P32246).
T1 construct: a monocytic derived cell line that endogenously expresses CCR1; host or cells: THP-1 cells
T1 sequence (P32246 1-355): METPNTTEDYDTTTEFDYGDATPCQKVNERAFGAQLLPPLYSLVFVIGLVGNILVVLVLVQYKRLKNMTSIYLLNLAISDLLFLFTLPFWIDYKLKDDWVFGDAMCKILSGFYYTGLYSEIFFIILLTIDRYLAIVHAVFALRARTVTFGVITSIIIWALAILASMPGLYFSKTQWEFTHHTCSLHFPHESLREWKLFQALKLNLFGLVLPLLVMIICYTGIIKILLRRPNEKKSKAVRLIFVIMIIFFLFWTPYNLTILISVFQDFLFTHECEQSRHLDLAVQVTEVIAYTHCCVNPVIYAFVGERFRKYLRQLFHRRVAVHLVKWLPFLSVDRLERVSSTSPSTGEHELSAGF
The experiment in a line: CCR1 inhibition (THP-1 FLIPR assay / THP-1 whole cell radioligand binding assay; the patent does not say which gave the values). It is filed as cell-based. The note with it: threshold list, less than 100 nm; compounds of Table 1; read-out: inhibitory activity. As to the method:
The primary screening assay is a FLIPR® (Fluorometric Imaging Plate Reader, available from Molecular Devices Corporation, Sunnyvale, Calif.) assay using THP-1 cells (ATCC, Catalog No. TIB 202), a monocytic derived cell line that endogenously expresses CCR1.
The cells were resuspended at 1×10^6 cells/ml in dye loading media (growth media (RPMI+10% FBS (Fetal Bovine serum)+5.5×10^−5M 2-mercaptoethanol)+10 mM HEPES (N-2-hydroxyethylpiperazine-N′-2-ethane-sulfonic acid)+2.5 mM probenecid+fluo-3 (1:250)). The cells were incubated for 1 hour at 37° C. and then washed in FLIPR wash buffer (100 mL 10× HBSS (Hanks Buffered Saline Solution) (w/Ca++/Mg++)+20 mL 1M HEPES+1 g BSA+10 mL 250 mM probenecid+water (to make 1 L)) and plated at 50,000 cells/well in black/clear 384 well plates. The plates were transferred to FLIPR where the ability of different concentrations of compounds to inhibit RANTES induced calcium flux was assessed. Inhibition of the CCR1 response was reflected by a decrease of the fluorescence signal relative to the positive controls (RANTES alone).
THP-1 Whole Cell Radioligand Binding Assay
The cells were washed with PBS (phosphate buffered saline) and resuspended in binding buffer (10 mM HEPES pH 7.2, 1× HBSS (w/Ca^2+, Mg^2+) 0.5% BSA, 0.02% Na-azide) at 4×10^6 cells/ml (for 200, 000 cells/well). Cells were incubated with 0.1 to 0.2 nM [^125I]-labeled MIP-1α with or without unlabeled competitor (MIP-1α) or various concentrations of compounds for 60 minutes at room temperature. The assay was terminated by vacuum filtration through glass fiber filters (GF/B, Packard) which were presoaked in 0.3% polyethyleneimine. The filters were washed with wash buffer (10 mM HEPES, pH 7.2, 1 mM CaCl2, 5 mM MgCl2 0.5M NaCl), dried and the amount of bound radioactivity was determined by scintillation counting.

Take `O=C(c1ccc(Cl)cc1)N1CCN([C@H]2CN(c3cc(C(F)(F)F)c4ccccc4n3)C[C@@H]2O)CC1` (stereo in doubt) [Example 127, 4-[4-(4-chlorobenzoyl)piperazin-1-yl]-1-[4-(trifluoromethyl)quinolin-2-yl]pyrrolidin-3-ol]: the IC50 is below 100 nM.

With `O=C(c1ccc(Cl)cc1)N1CCN([C@@H]2CN(c3nc(Nc4ccc(Cl)cc4)cc(C(F)(F)F)n3)C[C@H]2O)CC1` (stereo in doubt) [Example 106, 4-[4-(4-chlorobenzoyl)piperazin-1-yl]-1-[4-[(4-chlorophenyl)amino]-6-(trifluoromethyl)pyrimidin-2-yl]pyrrolidin-3-ol], the IC50 is below 100 nM.

On to `O=C(c1ccc(Cl)cc1)N1CCN([C@H]2CN(c3nc(C(F)(F)F)nc4cc(Cl)ccc34)C[C@@H]2O)CC1` (stereo in doubt) [Example 201, 4-[4-(4-chlorobenzoyl)piperazin-1-yl]-1-[7-chloro-2-(trifluoromethyl)quinazolin-4-yl]pyrrolidin-3-ol], for which the IC50 is below 100 nM.

Turning to `O=C(c1ccc(Cl)cc1)N1CCN([C@H]2CN(c3nc(C(F)(F)F)nc4ccc(Cl)cc34)C[C@@H]2O)CC1` (stereo in doubt) [Example 173, 4-[4-(4-chlorobenzoyl)piperazin-1-yl]-1-[6-chloro-2-(trifluoromethyl)quinazolin-4-yl]pyrrolidin-3-ol], the IC50 is below 100 nM.

In the case of `O=C(c1ccc(Cl)cc1)N1CCN([C@@H]2CN(c3ncnc4cc(C(F)(F)F)ccc34)C[C@H]2O)CC1` (stereo in doubt) [Example 93, 4-[4-(4-chlorobenzoyl)piperazin-1-yl]-1-[7-(trifluoromethyl)quinazolin-4-yl]pyrrolidin-3-ol], the IC50 was below 100 nM.

For `CN(C)c1ccc2nc(C(F)(F)F)nc(N3C[C@H](O)[C@@H](N4CCN(C(=O)c5ccc(Cl)cc5)CC4)C3)c2c1` (stereo in doubt) [Example 187, 4-[4-(4-chlorobenzoyl)piperazin-1-yl]-1-[6-(dimethylamino)-2-(trifluoromethyl)quinazolin-4-yl]pyrrolidin-3-ol], the IC50 is below 100 nM.

In the case of `CC(C)(C)c1cc(C(F)(F)F)nc(N2CC(O)C(N3CCN(C(=O)c4ccc(Cl)cc4)CC3)C2)n1` (stereo not drawn) [Example 129, 1-[4-tert-butyl-6-(trifluoromethyl)pyrimidin-2-yl]-4-[4-(4-chlorobenzoyl)piperazin-1-yl]pyrrolidin-3-ol], the IC50 is below 100 nM.

For the molecule `NC(=O)c1ccc2nc(C(F)(F)F)nc(N3C[C@@H](O)[C@H](N4CCN(C(=O)c5ccc(Cl)cc5)CC4)C3)c2c1` [Example 189, 4-{(3R,4R)-3-[4-(4-chlorobenzoyl)piperazin-1-yl]-4-hydroxypyrrolidin-1-yl}-2-(trifluoromethyl)quinazoline-6-carboxamide], the IC50 was below 100 nM.

Regarding `O=C(c1ccc(Cl)cc1)N1CCN([C@H]2CN(c3nc(C(F)(F)F)nc4c(F)cccc34)C[C@@H]2O)CC1` (stereo in doubt) [Example 178, 4-[4-(4-chlorobenzoyl)piperazin-1-yl]-1-[8-fluoro-2-(trifluoromethyl)quinazolin-4-yl]pyrrolidin-3-ol], the IC50 is below 100 nM.

Turning to `Cc1cc(C(F)(F)F)nc(N2C[C@H](O)[C@@H](N3CCN(C(=O)c4ccc(Cl)cc4)CC3)C2)n1` [Example 150, (3S,4S)-4-[4-(4-chlorobenzoyl)piperazin-1-yl]-1-[4-methyl-6-(trifluoromethyl)pyrimidin-2-yl]pyrrolidin-3-ol], the IC50 is below 100 nM.

Take `O=C(c1ccc(Cl)cc1)N1CCN([C@@H]2CN(c3nc(C(F)(F)F)cc(C(F)(F)F)n3)C[C@H]2O)CC1` (stereo in doubt) [Example 109, 1-[4,6-bis(trifluoromethyl)pyrimidin-2-yl]-4-[4-(4-chlorobenzoyl)piperazin-1-yl]pyrrolidin-3-ol]: the IC50 was below 100 nM.

For the molecule `CNC(=O)Nc1ccc2nc(C(F)(F)F)nc(N3C[C@H](O)[C@@H](N4CCN(C(=O)c5ccc(Cl)cc5)CC4)C3)c2c1` (stereo in doubt) [Example 196, N-[4-{3-[4-(4-chlorobenzoyl)piperazin-1-yl]-4-hydroxypyrrolidin-1-yl}-2-(trifluoromethyl)quinazolin-6-yl]-N′-methylurea], the IC50 is below 100 nM.

As for `O=C(c1ccc(Cl)cc1)N1CCN([C@@H]2CN(c3ccnc4cc(C(F)(F)F)ccc34)C[C@H]2O)CC1` [Example 12, 4-[4-(4-chlorobenzoyl)piperazin-1-yl]-1-[7-(trifluoromethyl)quinolin-4-yl]pyrrolidin-3-ol], the IC50 was below 100 nM.

For `O=C(c1ccc(Cl)cc1)N1CCN([C@H]2CN(c3ncnc4cc(C(F)(F)F)ccc34)C[C@@H]2O)CC1` (stereo in doubt) [Example 132, 4-[4-(4-chlorobenzoyl)piperazin-1-yl]-1-[7-(trifluoromethyl)quinazolin-4-yl]pyrrolidin-3-ol], the IC50 was below 100 nM.

On to `O=C(O)c1ccc2nc(C(F)(F)F)nc(N3C[C@@H](O)[C@H](N4CCN(C(=O)c5ccc(Cl)cc5)CC4)C3)c2c1` (stereo in doubt) [Example 181, 4-{3-[4-(4-chlorobenzoyl)piperazin-1-yl]-4-hydroxypyrrolidin-1-yl}-2-(trifluoromethyl)quinazoline-6-carboxylic acid], for which the IC50 was below 100 nM.

For `CCc1cc(C(F)(F)F)nc(N2C[C@@H](O)[C@H](N3CCN(C(=O)c4ccc(Cl)cc4)CC3)C2)n1` (stereo in doubt) [Example 121, 4-[4-(4-chlorobenzoyl)piperazin-1-yl]-1-[4-ethyl-6-(trifluoromethyl)pyrimidin-2-yl]pyrrolidin-3-ol], the IC50 was below 100 nM.

Regarding `COC(=O)Nc1ccc2nc(C(F)(F)F)nc(N3C[C@H](O)[C@@H](N4CCN(C(=O)c5ccc(Cl)cc5)CC4)C3)c2c1` (stereo in doubt) [Example 190, methyl [4-{3-[4-(4-chlorobenzoyl)piperazin-1-yl]-4-hydroxypyrrolidin-1-yl}-2-(trifluoromethyl)quinazolin-6-yl]carbamate], the IC50 was below 100 nM.

For `O=C(c1ccc(Cl)cc1)N1CCN([C@@H]2CN(c3ccnc4cc(Cl)ccc34)C[C@H]2O)CC1` (stereo in doubt) [Example 1, 4-[4-(4-chlorobenzoyl)piperazin-1-yl]-1-(7-chloroquinolin-4-yl)pyrrolidin-3-ol], the IC50 is below 100 nM.

For the molecule `O[C@H]1CN(c2ncnc3cc(Cl)ccc23)C[C@@H]1N1CCN(Cc2ccc(Cl)cc2)CC1` (stereo in doubt) [Example 87, 4-[4-(4-chlorobenzyl)piperazin-1-yl]-1-(7-chloroquinazolin-4-yl)pyrrolidin-3-ol], the IC50 is below 100 nM.

On to `O=C(c1ccc(Cl)cc1)N1CCN([C@@H]2CN(c3cc(C(F)(F)F)cc(C(F)(F)F)c3)C[C@H]2O)CC1` (stereo in doubt) [Example 113, 1-[3,5-bis(trifluoromethyl)phenyl]-4-[4-(4-chlorobenzoyl)piperazin-1-yl]pyrrolidin-3-ol], for which the IC50 is below 100 nM.

On to `O=C(c1ccc(Cl)cc1)N1CCN([C@@H]2CN(c3nccc4ccccc34)C[C@H]2O)CC1` [Example 21, 4-[4-(4-chlorobenzoyl)piperazin-1-yl]-1-isoquinolin-1-ylpyrrolidin-3-ol], for which the IC50 is below 100 nM.
